System: P. falciparum 3D7 growth, pLDH absorbance
Experiment: blood-stage malaria parasite growth potency – strain 3D7, dose response (AID 2305)

Row | Structure (SMILES) | IC50 [nM]
1 | O=C(c1ccc(-c2cnc3[nH]cc(-c4ccc(C(=O)N5CCOCC5)cc4)c3c2)cc1)N1CCOCC1 | 1000
2 | COc1ccccc1CNc1ccnc(NCCc2cccc(C(F)(F)F)c2)n1 | 930
3 | Cc1ccc(NC(=O)Nc2ccccc2)cc1-c1ccc(C(=O)Nc2ccncc2)cc1 | 240
4 | CCOc1ccccc1NC(=O)C(Sc1nc(C)cc(C)c1C#N)c1ccccc1 (centres undefined) | 370
5 | COc1ccc(NS(=O)(=O)c2ccccc2Br)cc1N1CCN(C)CC1 | 970
6 | O=c1cc(NC[C@H]2CCC[C@@H]2NC2CCCc3c2[nH]c2ccccc32)[nH]c2ccccc12 (some centres undefined) | 790
7 | O=C(CCc1cnc[nH]1)Nc1cccc(-c2ccc(-c3nc4ccccc4[nH]3)cc2)c1 | 650
8 | Cc1cc(N[C@@H](C)C(=O)Nc2ccccc2)nc(NCCc2ccc(F)cc2)n1 | 1110
9 | Cc1sc(NC(=O)Cc2cccc(C(F)(F)F)c2)nc1-c1cccc(Cl)c1 | 470
10 | CCN(CC)CCCC(C)Nc1c(-c2ccc(Br)cc2)cnc2ccccc12 (centres undefined) | 700
11 | Cc1nc(-c2ccccc2)nc(N2CCN(C(=O)c3ccco3)CC2)c1Cc1ccccc1F | 930
12 | O=C(/C=C/c1ccc(Cl)c(Cl)c1)NCCCCCCN1CCN(C(=O)Nc2cc(F)cc(F)c2)CC1 | 1070
13 | CCN(CC)CCN(Cc1ccc(-c2ccc(C(F)(F)F)cc2)cc1)C(=O)Cn1c(SCc2ccc(F)cc2)nc(=O)c2sccc21 | 990
14 | COc1ccccc1C1CCN(CCCCNC(=O)c2ccc(/C=C/c3cc(Cl)cc(Cl)c3)cc2)CC1 | 720
15 | COc1ccc(Nc2ncc3c(-c4ccc(NC(=O)c5cccc(C(F)(F)F)c5)cc4)c[nH]c3n2)cc1OC | 1030
16 | O=C(CCc1cnc[nH]1)Nc1cccc(-c2ccc(-c3nc4ccc(F)cc4[nH]3)cc2)c1 | 240
17 | COc1cccc(Nc2nccc(NCC(O)c3cccc(C(F)(F)F)c3)n2)c1 (centres undefined) | 700
18 | CC(C)c1ncc(-c2ccncc2)c(C2CCC(CNC(=O)c3ccncc3)CC2)n1 (centres undefined) | 1350
19 | CCOCCCn1c(=N)c(C(=O)NCc2ccc(F)cc2)cc2c(=O)n3cccc(C)c3nc21 | 530
20 | COc1ccc2nccc([C@@H](O)CN3CCC(NCc4ccc5c(c4)NC(=O)CO5)CC3)c2c1 | 1660
21 | COc1ccc(N2C(N)=NC(N)=NC2(C)C)cc1 | 110
22 | CSc1nc2nc(C)c(Cc3cccc(C(F)(F)F)c3)c(C)n2n1 | 190
23 | CC(=NNC(=S)NCCc1ccccn1)c1ccccn1 | 320
24 | CCC(C)(C)c1ccc(Oc2ccc(NC(=O)Nc3ccc(Cl)c(Cl)c3)cc2)cc1 | 700
25 | OCC(CO)(CO)NCc1ccc2c3c(cccc13)-c1ccccc1-2 | 1260

Row | Structure (SMILES) | IC50 [nM]
26 | Cc1nc2ccc(NC(=O)Nc3ccnc4ccc(C(F)(F)F)cc34)cc2o1 | 910
27 | Cc1[nH]c(C)c(-c2ccc(S(=O)(=O)c3ccc(Cl)cc3)cc2)c(=O)c1Br | 40
28 | COc1ccc(-c2ccc(NC(=O)c3ccc(Cl)cc3)cc2)cc1CN(C)CCN(C)C | 670
29 | CC(C)CN(c1nc(C(=O)NNC(=O)[C@H](CC2CC2)NC(=O)c2cc3cc(OCCN(C)C)ccc3o2)cs1)C1CC1 | 1030
30 | COC(=O)c1sc2ccccc2c1NC(=O)c1ccc(C)c(C)c1 | 1070
31 | O=C(NC1CCCCC1)C1CCCN(C(=O)c2ccc(O)c(-c3ccc(Cl)c(Cl)c3)c2)C1 (centres undefined) | 900
32 | Cc1ccc(F)c(OCC2CCN(c3ccc(C(=O)NC4CC4)cn3)CC2)c1 | 730
33 | CCCCCCCc1c(C)[nH]c2c(OC)cccc2c1=O | 920
34 | Oc1ccc(CCNc2nc(N/N=C/C=C/c3ccc(Cl)cc3)nc(N3CCNCC3)n2)cc1 | 780
35 | O=C(Nc1ccc(-c2nc3ccccc3[nH]2)cc1)C1CCN(Cc2cccc(F)c2F)CC1 | 1100
36 | CC(=O)c1cccc(Nc2nc3c(C#N)c(OCc4cc(Cl)cc(Cl)c4)ccc3[nH]2)c1 | 870
37 | CCOC(=O)c1cc(C(=O)NCCCCN2CCC(c3ccc4c(c3OC)CCCC4)CC2)ccc1-c1ccc(C(F)(F)F)cc1 | 710
38 | O=C(Nc1cccc(OC2CCN(Cc3ccccc3)CC2)c1)c1ccc([N+](=O)[O-])cc1 | 660
39 | CC(C)(C)c1cc(Cn2ccnc2)cc(C(C)(C)C)c1O | 1040
40 | Cc1cc(=O)c(C2CCC(c3ccc(Cl)cc3)CC2)c(C)[nH]1 (centres undefined) | 740
41 | O=C(N[C@@H](Cc1ccccc1)C(=O)NC1CCCCCC1)c1ccc(O)c(-c2ccc(Cl)c(Cl)c2)c1 | 330
42 | N=c1n(Cc2ccccc2)c2ccccc2n1CC(O)c1ccc(Cl)cc1 (centres undefined) | 880
43 | O=S(=O)(Nc1cccc(CCN2CCC(N3CCCCC3)CC2)c1)c1cccc2cccnc12 | 850
44 | CCN(CC)Cc1cc(Nc2c3ccc(Cl)cc3nc3cccc(OC)c23)ccc1O | 30
45 | FC(F)(F)c1ccc2nc(-c3ccc(-c4ccc(CNCc5ccccc5)cc4)cc3)[nH]c2c1 | 140
46 | COc1ccc2nccc([C@@H](O)CN3CCC(NS(=O)(=O)c4cc(Br)c(Br)s4)CC3)c2c1 | 850
47 | Cc1nc(-c2nc(NCc3ccncc3)ncc2-c2ccsc2)sc1C | 990
48 | CCCCCCCCNCCCSCCCNCCCCCCCC | 1230
49 | N#Cc1ccc(NC(=O)c2ccc(Cc3ccc4c(c3)CCN(C3CCC3)CC4)cn2)cc1 | 1120
50 | Nc1ncnc2occ(-c3ccc(NC(=O)Nc4cc(C(F)(F)F)ccc4F)cc3)c12 | 1720

Row | Structure (SMILES) | IC50 [nM]
51 | COc1ccc(CCNCCCCCCNCCc2ccc(Cl)cc2)c(Cl)c1OC | 830
52 | CC(=NNC(=S)Nc1ccccc1Cl)c1ccccn1 | 80
53 | COc1ccc(-c2cc(-c3nc4ccc(CN)cc4[nH]3)c(=O)n(C)c2)cc1OC | 1400
54 | COc1ccc2nccc([C@@H](O)CN3CCC(NCC(=O)Nc4cc(F)cc(F)c4)CC3)c2n1 | 910
55 | Cc1ccc2c(Cc3cnc(N)nc3N)cc(C)c(N)c2n1 | 1420
56 | NC(N)=NN=Cc1ccccc1OCc1ccccc1Cl | 720
57 | Cc1cccc2[nH]c(-c3cccc(-c4ccc(NC(=O)c5cnn6cccnc56)cc4)c3)nc12 | 210
58 | CCc1cc(NC2CCN(C)CC2)nc(Nc2cccc(OC)c2)n1 | 860
59 | Cc1cccc(Cl)c1S(=O)(=O)N1CCCCC(c2ccc(C(F)(F)F)cc2)=N1 | 220
60 | CC[C@H]1CN2CC[C@@H]1C[C@H]2[C@H](O)c1cc(-c2ccc(Cl)c(Cl)c2)nc2ccc(O)cc12 | 260
61 | CN(C(=O)/C=C/c1ccccc1F)C1CCN(CCCCCNC(=O)/C=C/c2ccc(Cl)c(Cl)c2)CC1 | 510
62 | COc1cc(Cc2cnc(N)nc2N)cc(OCCCC#N)c1OC | 1030
63 | CN(c1cc(NC(=O)c2cccs2)ccn1)C1CCN(Cc2cccc(C#N)c2)CC1 | 1260
64 | CCN(CC)CCNC(=O)c1ccc(NC(=O)c2ccc(-c3cc(NC(=O)CC4CCCC4)ccc3C)cc2)cc1 | 560
65 | COc1ccc(C2CCC(NCCCCNC(=O)c3ccc(NC(=O)c4ccc(Cl)cc4)cc3)CC2)cc1 (centres undefined) | 630
66 | C=CCCCNCC(NCCCNc1cc(=O)c2ccccc2[nH]1)c1cc(Br)cc(Br)c1 (centres undefined) | 890
67 | COc1cccc(CNC[C@@H](O)[C@H](Cc2ccccc2)NC(=O)c2cc(NC(C)C)cc(N3CCCCS3(=O)=O)c2)c1 | 780
68 | CCNC(C)(C)CN(Cc1ccc(-c2ccc(C(F)(F)F)cc2)cc1)C(=O)Cn1c(SCc2ccc(F)cc2)nc(=O)c2c1CCC2 | 990
69 | O=C(NC1CCCc2ccccc21)[C@@H]1CCCN1C(=O)c1ccc(O)c(-c2ccc(Cl)c(Cl)c2)c1 (some centres undefined) | 210
70 | NCCCNc1ccc(-c2ccc(NC(=O)Nc3cc(C(F)(F)F)ccc3F)cc2)cn1 | 840
71 | CS(=O)(=O)CCNCc1cccc(-c2cc3nccc(Nc4ccc(Oc5ccccc5)cc4)c3cc2Cl)c1 | 620
72 | CC(C)CCNC(=O)C1Cc2c([nH]c3ccc(Br)cc23)C2(CCN(Cc3ccccc3)CC2)N1 (centres undefined) | 820
73 | CC(C)N(C)C(=O)n1cnc(S(=O)(=O)C2C[C@@H]3CC[C@H]2C3)n1 (some centres undefined) | 60
74 | O=S(=O)(NCCN1CCCC1)c1ccc(-c2cccc(CNCCc3cccs3)c2)cc1 | 930
75 | COc1ccc(CNc2cc(C)nc3sc4c(c23)CCC2(C4)OCCO2)cc1 | 950

Row | Structure (SMILES) | IC50 [nM]
76 | Cc1cc(NN=Cc2ccccc2[N+](=O)[O-])c2cc(F)ccc2n1 | 660
77 | Brc1cc(Br)c2c(c1)C(NCCCNC1CCNc3c(Br)cc(Br)cc31)CCN2 (centres undefined) | 820
78 | O=C(NC1CCN(CC2(c3ccc(Cl)cc3)CCC2)CC1)c1ccn[nH]1 | 420
79 | Cc1ccc(NC(=O)NC2CCN(c3ccnc4ccccc34)CC2)cc1 | 790
80 | O=C(/C=C/c1ccc(Cl)c(Cl)c1)N1CCC(CCN2CCC(c3c[nH]c4cnccc34)CC2)CC1 | 120
81 | Nc1ncc(-c2ccc(S(=O)(=O)Nc3ccc(C(=O)N[C@@H](CCC(=O)O)C(=O)O)cc3)cc2)c(=O)[nH]1 | 800
82 | COc1ccc(NC(=O)Nc2cccc(-c3ccc(-c4nc5c(C)cccc5[nH]4)s3)c2)cc1 | 670
83 | O=C(c1cccc(COc2ccc3c(c2)CCN(C2CCCC2)CC3)c1)N1CCN(c2ccncc2)CC1 | 740
84 | CC(=O)Nc1cccc(C(=O)Nc2cccc(-c3csc(-c4nc5ccccc5[nH]4)c3)c2)c1 | 180
85 | COc1ccc(CNc2nc(NCc3ccccc3)c3cc(OC)c(OC)cc3n2)cc1OC | 540
86 | COc1ccccc1-c1[nH]c2ccccc2c1CN1CCC(c2c(C)cccc2C)CC1 | 920
87 | O=C(Nc1cccc(-c2ccc(-c3nc4ccc(C(F)(F)F)cc4[nH]3)s2)c1)c1cnc[nH]1 | 1110
88 | CC(CCc1ccccc1)NCC(O)c1ccc2c3c(cccc13)C(=O)N2C (centres undefined) | 810
89 | Cc1cc(N2CCOCC2)nc2ccc(NC(=O)c3cccc([N+](=O)[O-])c3)cc12 | 890
90 | O=C(Nc1ccccc1)Nc1ccc(-n2ccc(C(F)(F)F)n2)cc1 | 630
91 | CC(C)(C)c1nn(-c2ccc(Cl)cc2)c2[nH]c(=O)c(CNCc3cccs3)cc12 | 760
92 | COc1ccc(-n2ccnc2SCC(=O)Nc2cc(Cl)ccc2OC)c(OC)c1 | 730
93 | COc1ccc2nccc([C@@H](O)CN3CCC(NCc4cc5ccccc5[nH]4)CC3)c2n1 | 630
94 | O=C(c1cc2nc3c(c(C(F)(F)F)n2n1)CCc1ccccc1-3)N1CCN2CCCC2C1 (centres undefined) | 950
95 | COC(=O)c1cccc(NC(=O)NC2CCN(c3ccnc(Nc4ccc(F)cc4)n3)C2)c1 (centres undefined) | 500
96 | Cc1cccc2[nH]c(-c3cccc(-c4cccc(CN5CCC(CO)CC5)c4)c3)nc12 | 720
97 | Oc1ccc2ccccc2c1C=NNc1nc(Nc2ccccc2)nc(Nc2ccccc2)n1 | 670
98 | COc1ccc2ncc(F)c(CCN3CC[C@H](NCc4cc(C#N)c5c(c4)OCCO5)[C@H](O)C3)c2c1 | 890
99 | Cc1cc2ncn(-c3nccc(NCc4ccc(F)c(C)c4)n3)c2cc1C | 990

From PubChem BioAssay AID2305 (GlaxoSmithKline (GSK), 2010)
